Experimental data published in patent publication US10723741B1, “DNA polymerase IIIC inhibitors and use thereof” (Acurx Pharmaceuticals, LLC, priority 2018, dated 2020).
In brackets after ≈: the same amount, converted by molar mass. Where a name gives a salt, the structure may show the parent alone. Read-outs that look alike come from different tables or passages of the source.

What was measured:
Format in all cases: cell-based
[1] = tested on: Escherichia coli ATCC 25922; assay: Broth microdilution MIC, E. coli ATCC 25922 (MHIIB w & w/o 4 mM EDTA); settings: for MIC: Escherichia coli, read-out: MIC E. coli ATCC 25922; for MIC E. coli ATCC 25922 + 4 mM EDTA: with 4 mM EDTA
Summary of the method: (§1)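 Broth microdilution in strain-specific test medium with ~5.0×10^5 cfu/ml inoculum, 1% DMSO and two-fold compound dilutions from 64 to 0.0625 μg/ml. Plates were held 20 hours at 37° C in ambient air. S. pneumoniae colonies were grown beforehand on blood agar in 5% CO2.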

[2] = tested on: Bacillus subtilis ATCC 6633; assay: Broth microdilution MIC, B. subtilis ATCC 6633; settings: read-out: MIC B. subtilis ATCC 6633
Summary of the method: as §1

[3] = tested on: Enterococcus faecalis ATCC 29212; assay: Broth microdilution MIC, E. faecalis ATCC 29212; settings: read-out: MIC E. faecalis ATCC 29212
Summary of the method: as §1

[4] = tested on: Staphylococcus aureus ATCC 29213 (MSSA); assay: Broth microdilution MIC, S. aureus ATCC 29213 (MSSA); settings: read-out: MIC S. aureus ATCC 29213 (MSSA)
Summary of the method: as §1

[5] = tested on: Enterococcus faecium ATCC 700221 (VRE); assay: Broth microdilution MIC, E. faecium ATCC 700221 (VRE); settings: Enterococcus faecium
Summary of the method: as §1

[6] = tested on: Streptococcus pneumoniae ATCC 49619; assay: Broth microdilution MIC, S. pneumoniae ATCC 49619; settings: read-out: MIC S. pneumoniae ATCC 49619
Summary of the method: as §1

[7] = tested on: Staphylococcus aureus NRS384 (MRSA); assay: Broth microdilution MIC, S. aureus NRS384 (MRSA); settings: Staphylococcus aureus
Summary of the method: as §1

[8] = ATCC25922, without EDTA, broth microdilution, 37° C., 20 hours
[9] = broth microdilution, 37° C., 20 hours
[10] = ATCC6633, broth microdilution, 37° C., 20 hours
[11] = ATCC29212, broth microdilution, 37° C., 20 hours
[12] = broth microdilution, 37° C., 20 hours, read-out: MIC E. faecium ATCC 700221 (VRE)
[13] = ATCC49619, broth microdilution, 37° C., 20 hours
[14] = broth microdilution, 37° C., 20 hours, read-out: MIC NRS 384 (MRSA)
[15] = 20 h, read-out: MIC E. faecium ATCC 700221 (VRE)
[16] = 20 h, read-out: MIC NRS 384 (MRSA)

Compound	MIC [1, 8]	MIC E. coli ATCC 25922 + 4 mM EDTA [1, 9]	MIC [2, 10]	MIC [3, 11]	MIC [4, 9]	MIC [5, 12]	MIC [6, 13]	MIC [7, 14]	MIC ([5]; broth microdilution, MHIIB, 37° C., 20 hours, read-out: MIC against E. faecium ATCC 700221 (VRE))	MIC ([7]; broth microdilution, MHIIB, 37° C., 20 hours, read-out: MIC against S. aureus NRS 384 (MRSA))	MIC ([1]; ATCC25922, 20 h)	MIC ([2]; ATCC6633, 20 h)	MIC ([3]; ATCC29212, 20 h)	MIC ([4]; 20 h)	MIC [5, 15]	MIC ([6]; ATCC49619, 20 h)	MIC [7, 16]
O=C(O)C(CCCn1ncc2nc(NCc3ccc(Cl)c(Cl)c3)[nH]c(=O)c21)c1ccccc1 (stereo not drawn) [Compound 201, 5-(5-((3,4-dichlorobenzyl)amino)-7-oxo-6,7-dihydro-1H-pyrazolo[4,3-d]pyrimidin-1-yl)-2-phenylpentanoic acid]	> 64 µg/mL	>64. ug/ml	64 µg/mL (≈ 132 µM)	32 µg/mL (≈ 65.8 µM)	32 µg/mL (≈ 65.8 µM)	16 µg/mL (≈ 32.9 µM)	16 µg/mL (≈ 32.9 µM)	32 µg/mL (≈ 65.8 µM)									
CCOC(=O)CCCCn1ncc2nc(NCc3ccc(Cl)c(Cl)c3)[nH]c(=O)c21 [Compound 203, ethyl 5-(5-((3,4-dichlorobenzyl)amino)-7-oxo-6,7-dihydro-1H-pyrazolo[4,3-d]pyrimidin-1-yl)pentanoate]	> 64 µg/mL	>64 µg/mL	0.5 µg/mL (≈ 1.14 µM)	> 64 µg/mL	2 µg/mL (≈ 4.56 µM)	2 µg/mL (≈ 4.56 µM)	8 µg/mL (≈ 18.3 µM)	2 µg/mL (≈ 4.56 µM)									
CC(C)OC(=O)CCCn1ncc2nc(NCc3ccc(Cl)c(Cl)c3)[nH]c(=O)c21 [Compound 206, isopropyl 4-(5-((3,4-dichlorobenzyl)amino)-7-oxo-6,7-dihydro-1H-pyrazolo[4,3-d]pyrimidin-1-yl)butanoate]	> 64 µg/mL	>64 µg/mL	1 µg/mL (≈ 2.28 µM)	> 64 µg/mL	> 64 µg/mL	4 µg/mL (≈ 9.13 µM)	16 µg/mL (≈ 36.5 µM)	> 64 µg/mL									
O=c1[nH]c(NCc2ccc(Cl)c(Cl)c2)nc2cnn(C[C@@H]3CO[C@@H](CO)CO3)c12 [Compound 207, 5-((3,4-dichlorobenzyl)amino)-1-(((2R,5S)-5-(hydroxymethyl)-1,4-dioxan-2-yl)methyl)-1H-pyrazolo[4,3-d]pyrimidin-7(6H)-one]	> 64 µg/mL	>64 µg/mL	2 µg/mL (≈ 4.54 µM)	8 µg/mL (≈ 18.2 µM)	16 µg/mL (≈ 36.3 µM)	4 µg/mL (≈ 9.08 µM)	8 µg/mL (≈ 18.2 µM)	16 µg/mL (≈ 36.3 µM)									
O=c1[nH]c(NCc2ccc(Cl)c(Cl)c2)nc2cnn(C[C@@H]3CO[C@H](CO)CO3)c12 [Compound 208, 5-((3,4-dichlorobenzyl)amino)-1-(((2R,5R)-5-(hydroxymethyl)-1,4-dioxan-2-yl)methyl)-1H-pyrazolo[4,3-d]pyrimidin-7(6H)-one]	> 64 µg/mL	>64 µg/mL	2 µg/mL (≈ 4.54 µM)	8 µg/mL (≈ 18.2 µM)	16 µg/mL (≈ 36.3 µM)	4 µg/mL (≈ 9.08 µM)	8 µg/mL (≈ 18.2 µM)	16 µg/mL (≈ 36.3 µM)									
O=c1[nH]c(NCc2ccc(Cl)c(Cl)c2)nc2cn(C3CCNC3)nc12 (stereo not drawn) [Compound 215, 5-((3,4-Dichlorobenzyl)amino)-2-(pyrrolidin-3-yl)-2H-pyrazolo[4,3-d]pyrimidin-7(6H)-one TFA salt]		64 µg/mL									> 64 µg/mL	64 µg/mL	> 64 µg/mL	> 64 µg/mL	> 64 µg/mL	16 µg/mL	> 64 µg/mL
O=c1[nH]c(NCc2ccc(Cl)c(Cl)c2)nc2cnn(C3CCNC3)c12 (stereo not drawn) [Compound 216, 5-((3,4-dichlorobenzyl)amino)-1-(pyrrolidin-3-yl)-1H-pyrazolo[4,3-d]pyrimidin-7(6H)-one TFA salt]		>64 µg/mL									> 64 µg/mL	4 µg/mL	16 µg/mL	16 µg/mL	16 µg/mL	4 µg/mL	16 µg/mL
O=C(CCCCn1ncc2nc(NCc3ccc(Cl)c(Cl)c3)[nH]c(=O)c21)NO [Compound 217, 5-[5-[(3,4-dichlorophenyl)methylamino]-7-oxo-6H-pyrazolo[4,3-d]pyrimidin-1-yl]pentanehydroxamic acid]	> 64 µg/mL	>64 µg/mL	8 µg/mL (≈ 18.8 µM)	16 µg/mL (≈ 37.6 µM)	32 µg/mL (≈ 75.2 µM)	16 µg/mL (≈ 37.6 µM)	4 µg/mL (≈ 9.41 µM)	32 µg/mL (≈ 75.2 µM)									
O=C(O)CCCCn1ncc2nc(NCc3ccc(Cl)c(Cl)c3)[nH]c(=O)c21 [Compound 219, 5-[5-[(3,4-dichlorophenyl)methylamino]-7-oxo-6H-pyrazolo[4,3-d]pyrimidin-1-yl]pentanoic Acid]	> 64 µg/mL	>64 µg/mL	32 µg/mL (≈ 78 µM)	16 µg/mL (≈ 39 µM)	32 µg/mL (≈ 78 µM)	4 µg/mL (≈ 9.75 µM)	4 µg/mL (≈ 9.75 µM)	16 µg/mL (≈ 39 µM)									
CS(=O)(=O)CCOCCn1ncc2nc(NCc3ccc(Cl)c(Cl)c3)[nH]c(=O)c21 [Compound 220, 5-((3,4-dichlorobenzyl)amino)-1-(2-(2-(methylsulfonyl)ethoxy)ethyl)-1H-pyrazolo[4,3-d]pyrimidin-7(6H)-one]	> 64 µg/mL	>64 µg/mL	4 µg/mL (≈ 8.69 µM)	8 µg/mL (≈ 17.4 µM)	8 µg/mL (≈ 17.4 µM)	2 µg/mL (≈ 4.34 µM)	2 µg/mL (≈ 4.34 µM)	16 µg/mL (≈ 34.8 µM)									

Second part, led by results:

MIC [1, 8]	MIC E. coli ATCC 25922 + 4 mM EDTA [1, 9]	MIC [2, 10]	MIC [3, 11]	MIC [4, 9]	MIC [5, 12]	MIC [6, 13]	MIC [7, 14]	MIC ([5]; broth microdilution, MHIIB, 37° C., 20 hours, read-out: MIC against E. faecium ATCC 700221 (VRE))	MIC ([7]; broth microdilution, MHIIB, 37° C., 20 hours, read-out: MIC against S. aureus NRS 384 (MRSA))	Compound	MIC ([1]; ATCC25922, 20 h)	MIC ([2]; ATCC6633, 20 h)	MIC ([3]; ATCC29212, 20 h)	MIC ([4]; 20 h)	MIC [5, 15]	MIC ([6]; ATCC49619, 20 h)	MIC [7, 16]
> 64 µg/mL	>64 µg/mL	32 µg/mL (≈ 75.4 µM)	32 µg/mL (≈ 75.4 µM)	32 µg/mL (≈ 75.4 µM)	16 µg/mL (≈ 37.7 µM)	8 µg/mL (≈ 18.9 µM)	32 µg/mL (≈ 75.4 µM)			CC(CCCn1ncc2nc(NCc3ccc(Cl)c(Cl)c3)[nH]c(=O)c21)C(=O)O (stereo not drawn) [Compound 202, 5-(5-((3,4-dichlorobenzyl)amino)-7-oxo-6,7-dihydro-1H-pyrazolo[4,3-d]pyrimidin-1-yl)-2-methylpentanoic acid]							
> 64 µg/mL	>64 µg/mL	1 µg/mL (≈ 2.21 µM)	> 64 µg/mL	4 µg/mL (≈ 8.84 µM)	2 µg/mL (≈ 4.42 µM)	16 µg/mL (≈ 35.4 µM)	2 µg/mL (≈ 4.42 µM)			CC(C)OC(=O)CCCCn1ncc2nc(NCc3ccc(Cl)c(Cl)c3)[nH]c(=O)c21 [Compound 204, isopropyl 5-(5-((3,4-dichlorobenzyl)amino)-7-oxo-6,7-dihydro-1H-pyrazolo[4,3-d]pyrimidin-1-yl)pentanoate]							
> 64 µg/mL	>64 µg/mL	1 µg/mL (≈ 2.36 µM)	4 µg/mL (≈ 9.43 µM)	4 µg/mL (≈ 9.43 µM)	2 µg/mL (≈ 4.71 µM)	8 µg/mL (≈ 18.9 µM)	2 µg/mL (≈ 4.71 µM)			CCOC(=O)CCCn1ncc2nc(NCc3ccc(Cl)c(Cl)c3)[nH]c(=O)c21 [Compound 205, ethyl 4-(5-((3,4-dichlorobenzyl)amino)-7-oxo-6,7-dihydro-1H-pyrazolo[4,3-d]pyrimidin-1-yl)butanoate]							
> 64 µg/mL	>64 µg/mL	4 µg/mL (≈ 9.34 µM)	4 µg/mL (≈ 9.34 µM)	8 µg/mL (≈ 18.7 µM)	1 µg/mL (≈ 2.34 µM)	4 µg/mL (≈ 9.34 µM)	16 µg/mL (≈ 37.4 µM)			O=C(O)CCCCn1nc(F)c2nc(NCc3ccc(Cl)c(Cl)c3)[nH]c(=O)c21 [Compound 209, 5-(5-((3,4-dichlorobenzyl)amino)-3-fluoro-7-oxo-6,7-dihydro-1H-pyrazolo[4,3-d]pyrimidin-1-yl)pentanoic acid]							
> 64 µg/mL	>64 µg/mL	64 µg/mL (≈ 162 µM)	32 µg/mL (≈ 80.9 µM)	32 µg/mL (≈ 80.9 µM)	16 µg/mL (≈ 40.5 µM)	16 µg/mL (≈ 40.5 µM)	64 µg/mL (≈ 162 µM)			O=C(O)CCCCn1nc(F)c2nc(NCc3ccc(F)c(F)c3)[nH]c(=O)c21 [Compound 210, 5-(5-((3,4-Difluorobenzyl)amino)-3-fluoro-7-oxo-6,7-dihydro-1H-pyrazolo[4,3-d]pyrimidin-1-yl)pentanoic acid]							
> 64 µg/mL	>64 µg/mL	> 64 µg/mL	> 64 µg/mL	> 64 µg/mL	32 µg/mL (≈ 76.1 µM)	64 µg/mL (≈ 152 µM)	> 64 µg/mL			O=c1[nH]c(NCc2ccc(Cl)c(Cl)c2)nc2cnn(CCCc3nnn[nH]3)c12 [Compound 221, 1-(3-(1H-tetrazol-5-yl)propyl)-5-((3,4-dichlorobenzyl)amino)-1H-pyrazolo[4,3-d]pyrimidin-7(6H)-one]							
> 64 µg/mL	64 µg/mL	1 µg/mL (≈ 2.58 µM)	4 µg/mL (≈ 10.3 µM)	2 µg/mL (≈ 5.16 µM)	2 µg/mL (≈ 5.16 µM)	2 µg/mL (≈ 5.16 µM)	1 µg/mL (≈ 2.58 µM)	≤ 1 µg/mL	≤ 1 µg/mL	O=c1[nH]c(NCc2ccc(Cl)c(Cl)c2)nc2cnn(-c3ccncc3)c12 [Compound 222, 5-[(3,4-dichlorophenyl)methylamino]-1-(4-pyridyl)-6H-pyrazolo[4,3-d]pyrimidin-7-one]							
